Each structure is given as a SMILES string.

`O=C1CCCS(=O)(=O)C1` displayed a melting point of 141 to 143 °C. `Cc1cn2c(CO)c(C)nc2s1`: the melting point fell in the range of 149 to 151 °C. With `O=C(Cc1ccc(Cl)cc1Cl)c1ccc(F)cc1`, the melting point fell in the range of 108 to 110 °C. Under `O=C(NCC(F)(F)F)c1ccc(O)cc1` stands 113 to 115 °C. For `CC(C)(C)OC(=O)Nc1ccccc1C(=O)O` the value was 154 to 156 °C. For `Clc1ccc(CBr)c2ncccc12` the value was 94 to 96 °C; for `CC(C)=CCSc1ccccc1C(=O)O`, 138 to 140 °C; for `O=C(CCl)N1CCCC1`, 56 to 58 °C. Turning to `O=C(O)Cc1coc(-c2ccc(F)cc2)n1`, the melting point was 166 to 168 °C. With `O=C(O)c1ccc2c(c1)C(=O)N(Cc1ccccc1)C2=O`, the melting point was 198 to 200 °C. For `Cc1nn(C)c(Cl)c1/C=C/C(=O)O`, the melting point was 156 to 158 °C. Under `CNC(=O)c1cc([N+](=O)[O-])ccc1F` stands 142 to 144 °C.

For `Nc1nnn[nH]1`, the melting point was 200 to 204 °C. Under `CCn1c(Cl)nnc1-c1ccccc1Cl` stands 123 to 125 °C; under `COc1ccc(N)cc1S(=O)(=O)NC1CC1`, 163 to 165 °C; under `CC(C)c1noc2ncc(C(=O)O)cc12`, 159 to 161 °C.

The molecule `Nc1ccc2nc(Cc3ccccc3)oc2c1` displayed a melting point of 104 to 106 °C. Under `COC(=O)c1cc(N2CCOCC2)ccc1N` stands 106 to 108 °C; under `O=C(Nc1ccccc1)c1ccc(CBr)cc1`, 179 to 181 °C. Under `NC(Cc1ccco1)C(=O)O` (centres undefined) stands 179 to 181 °C; under `CN1CCN(c2ccc(F)cc2N)CC1`, 126 to 128 °C; under `Brc1cnn(-c2nccs2)c1`, 78 to 80 °C.

Turning to `Nc1cccc(-n2ccc(C(=O)O)n2)c1`, the melting point lay within 249 to 251 °C.

Molecule `Nc1nc(SCCO)n[nH]1` registered a melting point of 126 to 128 °C. Molecule `CN(C)C1CCN(c2ccc(N)cc2F)CC1` yielded a melting point of 124 to 126 °C. Molecule `O=C(O)c1cc(C2CC2)nc2ccc(Cl)cc12` had a melting point of 211 to 213 °C.

Turning to `N#CCN1CCSCC1`, the melting point was 51 to 53 °C. Molecule `NS(=O)(=O)c1cc(Cl)c(Cl)c(C(=O)O)c1` yielded a melting point of 237 to 239 °C.

The molecule `O=C1CSC(=S)N1c1cccnc1` yielded a melting point of 159 to 161 °C. For `CCc1ccc(OCc2nnc(S)n2Cc2ccccc2)cc1`, the melting point lay within 137 to 139 °C. For `O=C(O)C1CCCN1C(=O)c1ccc2ccccc2c1O` (centres undefined) the value was 197 to 199 °C; for `Cc1nc2c(c(C)c1CN)c(=O)[nH]n2C`, 311 to 313 °C; for `O=C(CCl)N1CCOC2CCCCC21` (centres undefined), 67 to 69 °C. As to `NC(=O)c1cncc(C(=O)O)c1`, the melting point fell in the range of 269 to 271 °C.

`Nc1ccc(F)c(S(=O)(=O)N2CCOCC2)c1` displayed a melting point of 128 to 130 °C. Regarding `C=CC(=O)Nc1ccc(OC)c(OC)c1`, the melting point was in the range of 102 to 104 °C.

The molecule `Clc1nnc(-c2cccs2)c2ccccc12` showed a melting point of 128 to 130 °C. Molecule `O=C(O)CCOc1cccnc1` returned a melting point of 174 to 176 °C.

Consider `Nc1cnccc1CO`, for which the melting point was in the range of 112 to 114 °C. Molecule `N#CCc1ccc(OCCBr)cc1` displayed a melting point of 52 to 54 °C. For `NC(=O)c1cccnc1NC1CCN(Cc2ccccc2)CC1` the value was 73 to 75 °C; for `O=C(O)c1nnc(S)[nH]c1=O`, 229 to 231 °C; for `Cn1nnnc1-c1cccc(S(=O)(=O)Cl)c1`, 86 to 88 °C. `CN(C)S(=O)(=O)c1ccc(S(=O)(=O)Cl)c([N+](=O)[O-])c1`: the melting point was 153 to 155 °C. For `N#Cc1ccccc1OCc1ccc(C(=O)O)o1` the value was 145 to 147 °C; for `O=C(O)c1cccc(F)c1Sc1ccccc1`, 161 to 163 °C. Under `OCc1cnc(-c2ccccc2)s1` stands 72 to 74 °C; under `CSc1ccc(NC(=O)C(C)Cl)cc1` (centres undefined), 129 to 131 °C; under `CC(C)(C)OC(=O)N1CCN(C(=O)C2CCCN2)CC1` (centres undefined), 219 to 221 °C. The molecule `CN(c1ccc(-c2csc(N)n2)cc1)S(C)(=O)=O` returned a melting point of 205 to 207 °C. Under `CNc1nc2ccccc2o1` stands 99 to 101 °C; under `N#Cc1cnn2c(O)cc(CCl)nc12`, 369 to 371 °C. As for `Cc1cc(C)c(C(=O)O)c(=O)[nH]1`, the melting point was in the range of 234 to 236 °C. Molecule `CC(NC(=O)Nc1ccccc1)C(=O)O` (centres undefined) returned a melting point of 180 to 182 °C.

`COc1ccc2cc(C#N)ccc2c1` showed a melting point of 105 to 107 °C. On to `O=C(O)C1CCN(S(=O)(=O)c2ccc(F)c(Cl)c2)CC1`, for which the melting point was in the range of 190 to 192 °C. Under `CCOC(=O)c1cc(C)nc2cc(C)nn12` stands 81 to 83 °C; under `CC1=CC(=O)N(c2ccccc2C(=O)O)C1=O`, 163 to 165 °C. In turn, `NNC(=O)Cc1csc(N2CCOCC2)n1` returned a melting point of 168 to 170 °C. On to `CC(C)(C)OC(=O)N1CCc2c(N)cccc2C1`, for which the melting point was 122 to 124 °C. Under `Nc1ccc(N2CCc3sccc3C2)cc1` stands 61 to 63 °C; under `CC(NC1=NS(=O)(=O)c2ccccc21)C(=O)O` (centres undefined), 220 to 222 °C; under `O=C(O)CNC(=O)c1ccc(S(=O)(=O)Cl)cc1`, 130 to 132 °C. Under `O=C(O)c1cccc(NS(=O)(=O)c2cc(Cl)ccc2Cl)c1` stands 217 to 219 °C. For `NS(=O)(=O)c1c(Cl)cccc1[N+](=O)[O-]` the value was 143 to 145 °C; for `O=C(O)CCc1cccc([N+](=O)[O-])c1`, 111 to 113 °C; for `Cc1cc(COc2ccc(C(=O)O)cc2Br)on1`, 209 to 211 °C. Turning to `Cc1nc(-c2ccccc2F)sc1C(C)O` (centres undefined), the melting point lay within 79 to 81 °C.

The molecule `N#CCc1cc(Cl)ccc1Cl` gave a melting point of 92 to 94 °C. For `COc1cc(F)c(S(=O)(=O)Cl)c(F)c1`, the melting point is 53 to 55 °C. For `CN(C)S(=O)(=O)c1cccc(CO)c1`, the melting point fell in the range of 65 to 67 °C. `Cc1cccc(NC(=O)Nc2cccc3c2NCCC3)c1`: the melting point was 168 to 170 °C. `Nc1cc(-n2nnnc2C2CC2)ccc1F` displayed a melting point of 112 to 114 °C.

The molecule `O=C(O)c1cnc(Cc2ccccc2)s1` registered a melting point of 199 to 201 °C. Molecule `Nc1cc(-c2ccco2)nn1-c1cccc([N+](=O)[O-])c1` yielded a melting point of 185 to 187 °C.

The molecule `O=S(=O)(Cl)C=Cc1ccc(F)cc1` gave a melting point of 110 to 112 °C. `NC(=O)C1CCCn2ccnc21` (centres undefined) registered a melting point of 177 to 179 °C.

The molecule `Cn1nnnc1Sc1ccc(Br)cc1N` came in with a melting point of 148 to 150 °C. Under `O=[N+]([O-])c1ccc(-c2noc(C(F)F)n2)cc1` stands 76 to 78 °C. For `CC(=O)c1ccc(-c2ccc(Cl)cc2)s1` the value was 120 to 122 °C; for `COc1ccc(Sc2nsc(N)n2)cc1`, 138 to 140 °C. Under `O=S(=O)(Nc1cc(F)cc(F)c1)c1ccc(Cl)nc1` stands 199 to 201 °C.

`CC1=NS(=O)(=O)NC(C)=C1CC(=O)O` registered a melting point of 185 to 187 °C. For `Cc1cccc(-c2[nH]ncc2C=O)c1` the value was 55 to 57 °C. Take `O=C(NC1(C(=O)O)CCCCC1)c1ccc(Br)cc1`: the melting point lay in the range of 238 to 240 °C.

`COc1ccc(NC(=O)C=CC(=O)O)cc1OC` came in with a melting point of 119 to 121 °C.

For `CNC(C(=O)O)c1ccc(F)cc1F` (centres undefined), the melting point was 277 to 279 °C. Under `O=C(Nc1nc2ccccc2s1)OCC(F)(F)F` stands 224 to 226 °C. `COc1cc2ncc(O)nc2cc1OC` returned a melting point of 266 to 268 °C.

In the case of `COC(=O)c1cc(F)c(Br)c([N+](=O)[O-])c1`, the melting point lay within 66 to 68 °C.

Turning to `O=C(O)C1CCCN(c2ncnc3sccc23)C1` (centres undefined), the melting point was in the range of 214 to 216 °C. For `NNc1cncc(Cl)n1` the value was 137 to 139 °C; for `Clc1cccc(-c2noc(Cl)n2)c1`, 44 to 46 °C. `Cc1ccc(-c2ccsc2C(=O)O)cc1` had a melting point of 134 to 136 °C. In turn, `O=C(O)c1cnc2ccccn2c1=O` displayed a melting point of 251 to 253 °C. Molecule `NNC(=O)Nc1cc(F)cc(F)c1` showed a melting point of 176 to 178 °C.

`CCOC(=O)C(NC(C)=O)C(C)=O` (centres undefined) yielded a melting point of 44 to 46 °C.

Take `Cc1ccc(NS(=O)(=O)c2ccc(Cl)c(C(=O)O)c2)cc1C`: the melting point lay within 207 to 209 °C. Turning to `NC(=O)CC(NC(=O)c1ccccc1Cl)C(=O)O` (centres undefined), the melting point lay in the range of 190 to 192 °C. For `Cc1sc(C(=O)O)cc1S(N)(=O)=O` the value was 249 to 251 °C; for `O=C(O)c1cc2c(c(S(=O)(=O)Cl)c1)CCC2`, 197 to 199 °C; for `CC1C(=O)NCCN1C(=O)c1ccccc1` (centres undefined), 146 to 148 °C.

In turn, `O=C(O)CCC(=O)c1cccc(F)c1` showed a melting point of 94 to 96 °C. As to `CCN(CC)S(=O)(=O)c1c[nH]c(C(=O)O)c1`, the melting point lay within 250 to 252 °C. Regarding `CCn1cc(C=O)c2ccccc21`, the melting point fell in the range of 104 to 106 °C. For `O=C(O)CSc1nc2cc(Cl)ccc2n1Cc1ccccc1` the value was 155 to 157 °C. Under `Nc1nc(-c2cccs2)cs1` stands 136 to 138 °C. For `ON=C(C(=NO)c1ccccc1)c1ccccc1` the value was 245 to 246 °C. As for `O=c1c(Cl)c(Cl)cnn1-c1ccc(Cl)cc1Cl`, the melting point lay within 200 to 202 °C. For `CCOc1cccc2c1C(=O)NC2=O`, the melting point is 149 to 151 °C. `Nc1nc2ccccc2n1-c1ccccc1F` displayed a melting point of 121 to 123 °C.

In turn, `CC(C)CC(NS(C)(=O)=O)C(=O)O` (centres undefined) came in with a melting point of 67 to 69 °C. For `Cc1nc(Cl)cc(-n2ccnc2)n1` the value was 114 to 116 °C; for `COC(=O)c1ccc(S(=O)(=O)Cl)c(Br)c1`, 82 to 84 °C. Under `N#Cc1cc(S(=O)(=O)Cl)ccc1Cl` stands 49 to 51 °C; under `NNc1ccc(S(=O)(=O)N2CCOCC2)cn1`, 179 to 181 °C.

Molecule `O=C(O)Cc1csc(Cc2ccc(F)cc2)n1` gave a melting point of 137 to 139 °C.

The molecule `Cc1nn(-c2ccccc2)c2nc(Cl)c(C=O)cc12` returned a melting point of 189 to 191 °C. Regarding `O=C(O)Cc1csc(-c2ccsc2)n1`, the melting point lay within 110 to 112 °C.

The record behind these values is a melting point compilation (Tetko et al.).
